Data: patent US6342604B1, “Substitute pyrimidine compounds and the use thereof” (BASF Aktiengesellschaft, priority 1994, dated 2002)
Like-named read-outs stand apart in the source and are kept apart here.

Molecular target: T1, human D3 receptor (Homo sapiens, UniProt P35462)
T1 construct: host or cells: CCL 1.3 mouse fibroblasts
Experiment: D3 receptor binding assay (125I-iodosulpiride displacement)
Details: for Selectivity Ki D2/Ki D3: ratio of Ki D2 (3H-spiperone) to Ki D3 (125I-sulpiride)
Description: Cloned human D3 receptor-expressing CCL 1.3 mouse fibroblasts obtained from Res. Biochemicals Internat. One Strathmore Rd., Natick, Mass.
After 48 h, the cells were washed with PBS and incubated with 0.05% trypsin-containing PBS for 5 min. Neutralization with medium was then carried out, and the cells were collected by centrifugation at 300 xg. To lyze the cells, the pellet was briefly washed with lysis buffer (5 mM tris-HCl, pH 7.4, with 10% glycerol) and then incubated in a concentration of 10^7 cells/ml of lysis buffer at 4° C. for 30 min. The cells were centrifuged at 200 xg for 10 min and the pellet was stored in liquid nitrogen.
The non-specific binding was determined using 10^−6 M spiperone.
After 60 min, the free and the bound radioligand was separated by filtration through GF/B glass fiber filters (Whatman, England) on a Skatron cell collector (Skatron, Lier, Norway), and the filters were washed with ice-cold tris-HCl buffer, pH 7.4. The radioactivity collected on the filters was quantified using a Packard 2200 CA liquid scintillation counter.
The Ki values were determined by non-linear regression analysis using the LIGAND program.

[1] = cloned human D3 receptor, CCL 1.3 mouse fibroblast membranes, 0.1 nM 125iodosulpiride, read-out: Receptor binding D3 125I-sulpiride Ki

T1 sequence (P35462 whole entry): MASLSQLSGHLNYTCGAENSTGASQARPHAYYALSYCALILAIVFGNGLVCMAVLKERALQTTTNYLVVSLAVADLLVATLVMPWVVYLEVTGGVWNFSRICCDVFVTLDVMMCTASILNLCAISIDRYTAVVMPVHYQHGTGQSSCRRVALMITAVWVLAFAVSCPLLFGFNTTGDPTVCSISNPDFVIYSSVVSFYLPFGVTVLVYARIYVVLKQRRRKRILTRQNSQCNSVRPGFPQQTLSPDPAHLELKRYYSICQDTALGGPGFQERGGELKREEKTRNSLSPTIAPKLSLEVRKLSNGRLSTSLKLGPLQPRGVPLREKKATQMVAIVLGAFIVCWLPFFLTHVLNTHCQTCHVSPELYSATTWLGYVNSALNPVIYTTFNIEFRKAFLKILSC

Ki [1] [nM]	SMILES	Ki [nM]	Selectivity Ki D2/Ki D3
–	Oc1ccnc(SCCCN2CCN(c3cccc(C(F)(F)F)c3)CC2)n1 [Example 12]	4.2	85
2.3	Oc1ccnc(SC/C=C/CN2CCN(c3cccc(C(F)(F)F)c3)CC2)n1 [Example 13]	–	61
2.8	CC(C)c1cccc(N2CCN(CCCSc3nccc(O)n3)CC2)c1 [Example 17]	–	71
–	Oc1ccnc(SCCCN2CC=C(c3cccc(C(F)(F)F)c3)CC2)n1 [Example 19]	3	58
